Results as given in PubChem BioAssay AID330 (DTP/NCI, 2004).
Where “and” joins values, the source holds several entries; their conditions need not be identical. Equal values may be shown once. Toxic doses and inconclusive results are not listed. Rule for the calls: active = survival T/C of 150% or more; inactive = T/C below 125% in these data.

Tested on: P388 leukemia ip, CD2F1 mice, survival T/C
Test: NCI In Vivo Anticancer Drug Screen. Data for tumor model P388 Leukemia (intraperitoneal) in CD2F1 (CDF1) mice
Settings: endpoint: median survival time, higher = longer survival
Method in brief: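 Mice carrying the transplanted tumor received test compound or vehicle. Survival was recorded in each group, and the value is the treated-group measurement divided by that of the vehicle-treated control group.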

[1] = dose: 25.0 mg/kg/injection, schedule: Q01DX009 (ip), vehicle: saline with Tween-80
[2] = dose: 100.0 mg/kg/injection, schedule: Q01DX009 (ip), vehicle: saline
[3] = dose: 200.0 mg/kg/injection, schedule: Q01DX009 (ip), vehicle: saline with Tween-80
[4] = dose: 200.0 mg/kg/injection, schedule: Q01DX009 (ip), vehicle: saline
[5] = dose: 60.0 mg/kg/injection, schedule: Q01DX005 (ip), vehicle: saline with Tween-80
[6] = dose: 100.0 mg/kg/injection, schedule: Q01DX001 (ip), vehicle: Klucel (hydroxypropylcellulose) (HPC)
[7] = dose: 200.0 mg/kg/injection, schedule: Q01DX001 (ip), vehicle: Klucel (hydroxypropylcellulose) (HPC)
[8] = dose: 400.0 mg/kg/injection, schedule: Q01DX001 (ip), vehicle: Klucel (hydroxypropylcellulose) (HPC)

Measured: T/C

C=CCCC1CN2CCc3cc(OC)c(OC)cc3C2CC1=O (stereo not given)
inactive: dose: 50.0 mg/kg/injection, schedule: Q01DX009 (ip), vehicle: Klucel (hydroxypropylcellulose) (HPC) 113 % of control | dose: 100.0 mg/kg/injection, schedule: Q01DX009 (ip), vehicle: Klucel (hydroxypropylcellulose) (HPC) 103 % of control | dose: 200.0 mg/kg/injection, schedule: Q01DX009 (ip), vehicle: Klucel (hydroxypropylcellulose) (HPC) 105 % of control

CCCCCSCN(CC)CC
inactive: [1] 103 % of control | dose: 25.0 mg/kg/injection, schedule: Q01DX009 (ip), vehicle: saline 99 % of control and 101 % of control | dose: 50.0 mg/kg/injection, schedule: Q01DX009 (ip), vehicle: saline 100 % of control and 104 % of control and 91 % of control | [2] 99 % of control and 101 % of control and 104 % of control | [3] 114 % of control | [4] 119 % of control (2×) and 120 % of control

COc1ccc2c(c1)OC(C)(C)C(c1ccccc1)=C2c1ccc2c(c1)NCCO2
inactive: dose: 15.0 mg/kg/injection, schedule: Q01DX005 (ip), vehicle: saline with Tween-80 99 % of control | dose: 30.0 mg/kg/injection, schedule: Q01DX005 (ip), vehicle: saline with Tween-80 91 % of control | [5] 91 % of control

COC1OC(CO)C(O)C(NC(=O)N(C)N=O)C1O (stereo not given)
active: [2] 169 % of control and 187 % of control | [4] 218 % of control and 232 % of control
inactive: dose: 400.0 mg/kg/injection, schedule: Q01DX009 (ip), vehicle: saline 105 % of control and 117 % of control

CC(C)=CCCC(=O)C(c1nc2nnc(N)n2[nH]c1=O)c1nc2nnc(N)n2[nH]c1=O
inactive: dose: 60.0 mg/kg/injection, schedule: Q01DX005 (ip), vehicle: saline 104 % of control | dose: 120.0 mg/kg/injection, schedule: Q01DX005 (ip), vehicle: saline 104 % of control | dose: 240.0 mg/kg/injection, schedule: Q01DX005 (ip), vehicle: saline 95 % of control

O=Cc1c(Br)n(-c2ccccc2)c2ccccc12
inactive: [6] 102 % of control | [7] 100 % of control | [8] 100 % of control

O=C(c1ccccc1)N1OCCc2ccccc21
inactive: [5] 100 % of control | dose: 120.0 mg/kg/injection, schedule: Q01DX005 (ip), vehicle: saline with Tween-80 104 % of control | dose: 240.0 mg/kg/injection, schedule: Q01DX005 (ip), vehicle: saline with Tween-80 96 % of control

CCOC(=O)N(C)O
inactive: dose: 50.0 mg/kg/injection, schedule: Q01DX005 (ip), vehicle: saline with Tween-80 105 % of control | dose: 100.0 mg/kg/injection, schedule: Q01DX005 (ip), vehicle: saline with Tween-80 107 % of control | dose: 200.0 mg/kg/injection, schedule: Q01DX005 (ip), vehicle: saline with Tween-80 100 % of control | dose: 400.0 mg/kg/injection, schedule: Q01DX005 (ip), vehicle: saline with Tween-80 100 % of control

O/N=C/c1c(-c2ccccc2)nc2n1CCS2
inactive: dose: 100.0 mg/kg/injection, schedule: Q04DX002 (ip), vehicle: Klucel (hydroxypropylcellulose) (HPC) 101 % of control | dose: 200.0 mg/kg/injection, schedule: Q04DX002 (ip), vehicle: Klucel (hydroxypropylcellulose) (HPC) 99 % of control | dose: 400.0 mg/kg/injection, schedule: Q04DX002 (ip), vehicle: Klucel (hydroxypropylcellulose) (HPC) 98 % of control

COc1nc(Nc2ccc(/C=C/c3ccc(Nc4nc(OC)nc(N(CCO)CCO)n4)cc3S(=O)(=O)O)c(S(=O)(=O)O)c2)nc(N(CCO)CCO)n1
inactive: dose: 100.0 mg/kg/injection, schedule: Q04DX003 (ip), vehicle: saline 98 % of control | dose: 200.0 mg/kg/injection, schedule: Q04DX003 (ip), vehicle: saline 98 % of control | dose: 400.0 mg/kg/injection, schedule: Q04DX003 (ip), vehicle: saline 103 % of control

COC1=C(OC)C(=O)C(SCCCc2ccccc2)=CC1=O
inactive: dose: 12.5 mg/kg/injection, schedule: Q04DX002 (ip), vehicle: saline with Tween-80 114 % of control | dose: 25.0 mg/kg/injection, schedule: Q04DX002 (ip), vehicle: saline with Tween-80 112 % of control | dose: 50.0 mg/kg/injection, schedule: Q04DX002 (ip), vehicle: saline with Tween-80 122 % of control

C#CC(O)(c1ccccc1)c1ccc(N2CCOCC2)cc1 (stereo not given)
inactive: [1] 95 % of control | dose: 50.0 mg/kg/injection, schedule: Q01DX009 (ip), vehicle: saline with Tween-80 98 % of control | dose: 100.0 mg/kg/injection, schedule: Q01DX009 (ip), vehicle: saline with Tween-80 98 % of control | [3] 97 % of control

OC1CC2CC1C1C3C=CC(C3)C21 (stereo not given)
inactive: dose: 6.25 mg/kg/injection, schedule: Q01DX009 (ip), vehicle: saline with Tween-80 104 % of control | dose: 12.5 mg/kg/injection, schedule: Q01DX009 (ip), vehicle: saline with Tween-80 102 % of control | [1] 102 % of control

CSC1=NCc2c(sc3c2CCCC3)N1
inactive: dose: 50.0 mg/kg/injection, schedule: Q01DX005 (ip), vehicle: Klucel (hydroxypropylcellulose) (HPC) 100 % of control | dose: 100.0 mg/kg/injection, schedule: Q01DX005 (ip), vehicle: Klucel (hydroxypropylcellulose) (HPC) 106 % of control | dose: 200.0 mg/kg/injection, schedule: Q01DX005 (ip), vehicle: Klucel (hydroxypropylcellulose) (HPC) 98 % of control

O=C1CC(C2(c3ccccc3)SCCCS2)CO1 (stereo not given)
inactive: [6] 99 % of control | [7] 98 % of control | [8] 100 % of control
